From US20260028365A1 (BIOGEN MA INC., priority 2022, published 2026)
Like-named read-outs stand apart in the source and are kept apart here.

Legend:
JH2 domain of human Tyk2 = JH2 domain of human Tyk2 (Homo sapiens (Human), UniProt P29597); assay: JH2 Biochemical Assay (TR-FRET probe displacement); assay type: binding
Tyk2 = Tyk2 (Homo sapiens (Human), UniProt P29597); assay: pSTAT4 Cell Assay (MSD, NK92 cells); assay type: cell-based
[1] = TR-FRET probe displacement, JH2 domain
[2] = JH2 domain of human Tyk2, TR-FRET probe displacement
[3] = TR-FRET probe displacement, JH2 domain of human Tyk2

Sequence of Tyk2 (P29597 whole entry, the tested form may be a part): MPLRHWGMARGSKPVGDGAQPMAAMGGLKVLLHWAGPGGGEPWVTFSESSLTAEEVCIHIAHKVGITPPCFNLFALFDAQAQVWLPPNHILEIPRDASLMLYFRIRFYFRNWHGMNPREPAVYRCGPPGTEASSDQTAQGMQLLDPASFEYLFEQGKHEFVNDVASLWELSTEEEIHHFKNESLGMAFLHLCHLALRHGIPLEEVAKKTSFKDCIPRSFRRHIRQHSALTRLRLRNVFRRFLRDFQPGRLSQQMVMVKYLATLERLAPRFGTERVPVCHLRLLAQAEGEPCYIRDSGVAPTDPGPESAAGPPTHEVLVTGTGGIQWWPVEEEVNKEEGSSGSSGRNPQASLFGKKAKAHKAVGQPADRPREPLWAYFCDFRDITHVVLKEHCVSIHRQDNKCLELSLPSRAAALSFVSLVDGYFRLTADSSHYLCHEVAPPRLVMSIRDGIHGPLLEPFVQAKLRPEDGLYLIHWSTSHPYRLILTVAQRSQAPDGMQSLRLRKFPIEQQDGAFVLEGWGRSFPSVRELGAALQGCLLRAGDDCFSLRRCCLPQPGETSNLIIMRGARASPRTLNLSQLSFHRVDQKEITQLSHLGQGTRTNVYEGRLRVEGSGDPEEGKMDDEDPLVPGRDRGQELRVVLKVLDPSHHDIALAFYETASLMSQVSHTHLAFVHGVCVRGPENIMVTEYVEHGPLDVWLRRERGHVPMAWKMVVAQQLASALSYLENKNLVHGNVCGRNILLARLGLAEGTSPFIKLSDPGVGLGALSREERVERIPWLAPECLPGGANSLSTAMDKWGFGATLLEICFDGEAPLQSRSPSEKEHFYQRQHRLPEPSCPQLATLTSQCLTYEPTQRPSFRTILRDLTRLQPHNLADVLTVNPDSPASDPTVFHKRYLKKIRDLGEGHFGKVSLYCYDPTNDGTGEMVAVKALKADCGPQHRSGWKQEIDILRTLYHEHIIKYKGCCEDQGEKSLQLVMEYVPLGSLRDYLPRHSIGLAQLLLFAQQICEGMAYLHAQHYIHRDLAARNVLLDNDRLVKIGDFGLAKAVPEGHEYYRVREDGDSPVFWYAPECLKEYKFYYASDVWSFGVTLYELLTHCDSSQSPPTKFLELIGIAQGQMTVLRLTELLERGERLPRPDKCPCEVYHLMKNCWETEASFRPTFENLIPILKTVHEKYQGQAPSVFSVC
Sequence of JH2 domain of human Tyk2 (P29597 575-876): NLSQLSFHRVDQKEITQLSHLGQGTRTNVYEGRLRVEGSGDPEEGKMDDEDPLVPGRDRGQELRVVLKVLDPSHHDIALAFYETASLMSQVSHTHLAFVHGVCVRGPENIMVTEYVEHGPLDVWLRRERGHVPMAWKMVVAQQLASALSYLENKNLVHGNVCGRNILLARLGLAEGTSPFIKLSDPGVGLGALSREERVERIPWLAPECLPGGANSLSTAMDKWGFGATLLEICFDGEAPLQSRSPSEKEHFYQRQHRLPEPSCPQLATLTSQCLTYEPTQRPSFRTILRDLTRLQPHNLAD

Structure (SMILES)	IC50 (JH2 domain of human Tyk2; [1]) [nM]	IC50 (Tyk2) [nM]	IC50 (JH2 domain of human Tyk2; [2]) [nM]	IC50 (Tyk2; MSD) [nM]	IC50 (JH2 domain of human Tyk2; [3]) [nM]
CC(=O)Nc1cc(Nc2cc(C)nc(C(C)(F)F)n2)c(-c2nc3n(n2)CCOC3)cn1 [Example 760, N-(4-((2-(1,1-difluoroethyl)-6-methylpyrimidin-4-yl)amino)-5-(5,6-dihydrO8H-[1,2,4]triazolo[5,1-c][1,4]oxazin-2-yl)pyridin-2-yl)acetamide]	≤ 10	10 to 100			
CC(=O)Nc1cc(Nc2cc(C)nc(C(C)(F)F)n2)c(-n2cc(C)cn2)cn1 [Example 729, N-(4-((2-(1,1-difluoroethyl)-6-methylpyrimidin-4-yl)amino)-5-(4-methyl-1H-pyrazol-1-yl)pyridin-2-yl)acetamide]			≤ 10	≤ 10	
COc1cncc(Nc2cc(NC(C)=O)ncc2-c2ccc(F)cn2)n1 [Example 586, N-(5-fluorO4′-((6-methoxypyrazin-2-yl)amino)-[2,3′-bipyridin]-6′-yl)acetamide]			≤ 10	10 to 100	
COc1ncc(-c2cnc(NC(C)=O)cc2Nc2ccnc(C(C)(F)F)n2)nc1OC [Example 686, N-(4-((2-(1,1-difluoroethyl)pyrimidin-4-yl)amino)-5-(5,6-dimethoxypyrazin-2-yl)pyridin-2-yl)acetamide]			10 to 100	≥ 1000	
CCC(F)(F)c1cnc(NC(C)=O)cc1Nc1cc(C)nc(C(C)(F)F)n1 [Example 154, N-(4-((2-(1,1-difluoroethyl)-6-methylpyrimidin-4-yl)amino)-5-(1,1-difluoropropyl)pyridin-2-yl)acetamide]				≥ 1000	10 to 100
CC(=O)Nc1cc(Nc2cc(OC3CC3)nc(C(C)(F)F)n2)c(O[C@H]2C[C@H](F)C2)cn1 [Example 352, N-(4-((6-cyclopropoxy-2-(1,1-difluoroethyl)pyrimidin-4-yl)amino)-5-((1r,3r)-3-fluorocyclobutoxy)pyridin-2-yl)acetamide]				10 to 100	≤ 10
CC(=O)Nc1cc(Nc2cc(C)nc(C(C)(F)F)n2)c(OCC2COC2)cn1 [Example 61, N-(4-((2-(1,1-difluoroethyl)-6-methylpyrimidin-4-yl)amino)-5-(oxetan-3-ylmethoxy)pyridin-2-yl)acetamide]				10 to 100	≤ 10
CCOc1cnc(NC(C)=O)cc1Nc1cc(-c2ccc(OC)nc2)nc(C(C)(F)F)n1 [Example 369, N-(4-((2-(1,1-difluoroethyl)-6-(6-methoxypyridin-3-yl)pyrimidin-4-yl)amino)-5-ethoxypyridin-2-yl)acetamide]				10 to 100	≤ 10
CC(=O)Nc1cc(Nc2cc(C)nc(C(C)(F)F)n2)c(OC[C@H]2CCC(=O)N2)cn1 [Example 502, (R)-N-(4-((2-(1,1-difluoroethyl)-6-methylpyrimidin-4-yl)amino)-5-((5-oxopyrrolidin-2-yl)methoxy)pyridin-2-yl)acetamide]			≤ 10	100 to 1000	
CC(=O)Nc1cc(Nc2ccnc(C(C)(F)F)n2)c(-c2cncc(CC#N)n2)cn1 [Example 688, N-(5-(6-(cyanomethyl)pyrazin-2-yl)-4-((2-(1,1-difluoroethyl)pyrimidin-4-yl)amino)pyridin-2-yl)acetamide]			≤ 10	100 to 1000	
CCc1cc(Nc2cc(NC(C)=O)ncc2-c2cnc(CN3C[C@H]4C[C@@H](C3)O4)cn2)nc(C(C)(F)F)n1 [Example 900, N-(5-(5-(((1R,5S)-6-oxa-3-azabicyclo[3.1.1]heptan-3-yl)methyl)pyrazin-2-yl)-4-((2-(1,1-difluoroethyl)-6-ethylpyrimidin-4-yl)amino)pyridin-2-yl)acetamide]	≤ 10	≤ 10			
CC(=O)Nc1cc(Nc2cc(C)nc(C(C)(F)F)n2)c(-c2cccnn2)cn1 [Example 251, N-(4-((2-(1,1-difluoroethyl)-6-methylpyrimidin-4-yl)amino)-5-(pyridazin-3-yl)pyridin-2-yl)acetamide]				≤ 10	≤ 10
CCc1cc(Nc2cc(NC(C)=O)ncc2OCCCF)nc(C(C)(F)F)n1 [Example 405, N-(4-((2-(1,1-difluoroethyl)-6-ethylpyrimidin-4-yl)amino)-5-(3-fluoropropoxy)pyridin-2-yl)acetamide]			≤ 10	10 to 100	
CC(=O)Nc1cc(Nc2cc(OC3CC3)nc(C(C)(F)F)n2)c(OCc2ccc(F)c(F)c2)cn1 [Example 349, N-(4-((6-cyclopropoxy-2-(1,1-difluoroethyl)pyrimidin-4-yl)amino)-5-((3,4-difluorobenzyl)oxy)pyridin-2-yl)acetamide]				≤ 10	≤ 10
CC(=O)Nc1cc(Nc2ccnc(C(C)(F)F)n2)c(-c2ccc(N3CC4(CCOC4)C3)nn2)cn1 [Example 877, N-(5-(6-(6-oxa-2-azaspiro[3.4]octan-2-yl)pyridazin-3-yl)-4-((2-(1,1-difluoroethyl)pyrimidin-4-yl)amino)pyridin-2-yl)acetamide]	≤ 10	≤ 10			
CC(=O)Nc1cc(Nc2cc(C)nc(C(C)(F)F)n2)c(-c2ccc(C(F)F)cn2)cn1 [Example 827, N-(4′-((2-(1,1-difluoroethyl)-6-methylpyrimidin-4-yl)amino)-5-(difluoromethyl)-[2,3′-bipyridin]-6′-yl)acetamide]	≤ 10	≤ 10			
CCc1noc(COc2cnc(NC(C)=O)cc2Nc2cc(C)nc(C(C)(F)F)n2)n1 [Example 331, N-(4-((2-(1,1-difluoroethyl)-6-methylpyrimidin-4-yl)amino)-5-((3-ethyl-1,2,4-oxadiazol-5-yl)methoxy)pyridin-2-yl)acetamide]				100 to 1000	10 to 100
CC(=O)Nc1cc(Nc2cc(C)nc(C(C)(F)F)n2)c(-c2ncc(CN3CCCC3)s2)cn1 [Example 738, N-(4-((2-(1,1-difluoroethyl)-6-methylpyrimidin-4-yl)amino)-5-(5-(pyrrolidin-1-ylmethyl)thiazol-2-yl)pyridin-2-yl)acetamide]			≤ 10	≤ 10	
CCc1cc(Nc2cc(NC(C)=O)ncc2-c2ccc(N(C)C)nn2)nc(C(C)(F)F)n1 [Example 862, N-(4-((2-(1,1-difluoroethyl)-6-ethylpyrimidin-4-yl)amino)-5-(6-(dimethylamino)pyridazin-3-yl)pyridin-2-yl)acetamide]	≤ 10	≤ 10			
CC(=O)Nc1cc(Nc2ccnc(C(C)(F)F)n2)c(-c2cnc(N3CC4(COC4)C3)cn2)cn1 [Example 888, N-(5-(5-(2-oxa-6-azaspiro[3.3]heptan-6-yl)pyrazin-2-yl)-4-((2-(1,1-difluoroethyl)pyrimidin-4-yl)amino)pyridin-2-yl)acetamide]	≤ 10	100 to 1000			
CC(=O)Nc1cc(Nc2cc(C)nc(C(C)(F)F)n2)c(-c2ncc(Cl)cn2)cn1 [Example 669, N-(5-(5-chloropyrimidin-2-yl)-4-((2-(1,1-difluoroethyl)-6-methylpyrimidin-4-yl)amino)pyridin-2-yl)acetamide]			≤ 10	10 to 100	
CC(=O)Nc1cc(Nc2cc(C)nc(C(C)(F)F)n2)c(-c2csc(N3CCOCC3)n2)cn1 [Example 234, N-(4-((2-(1,1-difluoroethyl)-6-methylpyrimidin-4-yl)amino)-5-(2-morpholinothiazol-4-yl)pyridin-2-yl)acetamide]				≤ 10	≤ 10
